The values that follow come from US10708263B2, “Salts and pharmaceutical compositions thereof for the treatment of inflammatory disorders” (Galapagos N.V., priority 2014, dated 2020).

Series [1] in a line: Thermodynamic aqueous solubility by HPLC. It is filed as physicochemical. The note with it: salt from Protocol 4.
A short description of series [2]: Salt stability and hygroscopicity evaluation. It is filed as physicochemical. Particulars: for stability of the salt: salt from Protocol 4, XRPD analysis; for hygroscopicity of the salt: salt from Protocol 4.
The nature of series [3]: Dog bioavailability study. In kind it is in vivo, beagle dogs. Here is the method: The dogs are not fasted before dosing, and have free access to water. Every day of the treatment, a half food ration is provided after the T0 blood sampling, 8 to 17 min before treatment, and the second half ration is given just after dosing or 1 h after treatment for period 2. A 3 days washout period is ensured between treatments.
The capsule composition is described in Table XX below.
The capsules are administered orally with water (5-10 mL), to provide good oesophageal transit. Each animal is checked at least once daily.
Blood is collected from the jugular vein into lithium heparinised tubes at T0 (before food administration) and then at 1 h, 2 h, 4 h, 6 h, 8 h, 10 h, and 24 h post treatment.
Plasma is then obtained from blood by centrifugation (2500 g for 10 min at 4° C.), and stored at −20° C. until analysis.
After vortex mixing and centrifugation at 4° C., the supernatants are diluted with a 0.5 volume of HPLC grade water in a midi-eppendorf 96-well plate. The plate is sealed and shaken to ensure sample homogeneity prior to analysis.
Pharmacokinetic analysis is performed using WinNonlin™ software version 5.3, using concentrations from individual animals. Non-compartmental analysis is applied to determine the PK parameters (Cmax, Tmax, AUC0-last, t1/2, etc. . . . )
Concentrations below the limit of detection are set to zero for descriptive statistics and PK parameter calculations.

A short description of series [4]: Solubility study in different solvents. In kind it is physicochemical. Here is the method:
The supersaturated solution is then filtered and the concentration of product in the filtrate is determined using UV-spectrometry.
In water, the influence of the pH is adjusted to pH 2, pH 7, and pH 9. HCl and NaOH are used to adjust the pH.

The subject of series [5] is MMP13 levels in human chondrosarcoma cell line SW1353. The series can be described thus: cells. Particulars: SW1353, 48 h, read-out: OSM/IL-1β signaling EC50.
Description: The cells are seeded in 96 well plates at 15,000 cells/well in a volume of 120 μL DMEM (Invitrogen) containing 10% (v/v) FBS and 1% penicillin/streptomycin (InVitrogen) incubated at 37° C./5% CO2. Cells are preincubated with 15 μL of compound in M199 medium with 2% DMSO 1 hr before triggering with 15 μL OSM and IL-1P to reach 25 ng/mL OSM and 1 ng/mL IL-1β, and MMP13 levels are measured in conditioned medium 48 h after triggering. MMP13 activity is measured using an antibody capture activity assay. For this purpose, 384 well plates (NUNC, 460518, MaxiSorb black) are coated with 35 μL of a 1.5 μg/mL anti-human MMP13 antibody (R&D Systems, MAB511) solution for 24 hrs at 4° C. After washing the wells 2 times with PBS+0.05% Tween, the remaining binding sites are blocked with 100 μL 5% non-fat dry milk (Santa Cruz, sc-2325, Blotto) in PBS for 24 hr at 4° C. […] After incubation for 24 hrs at 37° C. fluorescence of the converted substrate is measured in a Perkin Elmer Wallac EnVision 2102 Multilabel Reader (wavelength excitation: 320 nm, wavelength emission: 405 nm). Percentage inhibition=((fluorescence determined in the presence of vehicle−fluorescence determined for sample with test compound present) divided by (fluorescence determined in the presence of vehicle−fluorescence determined for sample without trigger))*100.
[6] abbreviates: oral capsules, on average and at the 2 capsule strengths, FIG. 10.

Converted amounts (≈) assume the structure as drawn. Structures can show the parent of a compound that is named as a salt.

`O=C(Nc1nc2cccc(-c3ccc(CN4CCS(=O)(=O)CC4)cc3)n2n1)C1CC1.O=C(O)/C=C\C(=O)O` [Compound 1 maleic acid salt]: the solubility in series [1] (water) amounted to 400 µg/mL. In series [2], the “stability of the salt” value is “stable”.

In the case of `O=C(Nc1nc2cccc(-c3ccc(CN4CCS(=O)(=O)CC4)cc3)n2n1)C1CC1` [Compound 1, cyclopropanecarboxylic acid {5-[4-(1,1-dioxo-thiomorpholin-4-ylmethyl)-phenyl]-[1,2,4]triazolo[1,5-a]pyridin-2-yl}-amide], in series [3] (male, beagle, plasma, 10 mg/kg, single oral administration, range over both forms and both capsule strengths), the half-life was 4.43 to 8.96 h. Also, the solubility amounted to 313 µg/mL in series [4] (0.01M HCl + 2.0% Tweet 80 (so in the source); presumably Tween 80), pH 2, aqueous with cosolvent or surfactant or cyclodextrin, thermodynamic from solid, 0.01M HCl + 2.0% Tweet 80, 20° C., read-out: Solubility); 1570 µg/mL (≈ 3690 µM) in series [4] (aqueous with cosolvent or surfactant or cyclodextrin, thermodynamic from solid, Acetonitrile/water (1/1), 20° C., read-out: Solubility); 577 µg/mL (≈ 1360 µM) in series [4] (aqueous with cosolvent or surfactant or cyclodextrin, thermodynamic from solid, HP-β-CD 40% pH 2, 20° C., read-out: Solubility); 520 µg/mL (≈ 1220 µM) in series [4] (aqueous with cosolvent or surfactant or cyclodextrin, thermodynamic from solid, HP-β-CD 40% pH 4, 20° C., read-out: Solubility); 327 µg/mL (≈ 768 µM) in series [4] (aqueous with cosolvent or surfactant or cyclodextrin, thermodynamic from solid, Water/ethanol 1/1, 20° C., read-out: Solubility); 420 µg/mL (≈ 987 µM) in series [4] (organic solvent or mixture, thermodynamic from solid, Acetone, 20° C., read-out: Solubility). Moreover, the solubility stood at 605 µg/mL (≈ 1420 µM) in series [4] (organic solvent or mixture, thermodynamic from solid, Acetonitrile, 20° C., read-out: Solubility); 3110 µg/mL (≈ 7310 µM) in series [4] (organic solvent or mixture, thermodynamic from solid, Acetonitrile/water (4/1), 20° C., read-out: Solubility); 5660 µg/mL (≈ 13300 µM) in series [4] (organic solvent or mixture, thermodynamic from solid, Dichloromethane, 20° C., read-out: Solubility); 151 µg/mL (≈ 355 µM) in series [4] (organic solvent or mixture, thermodynamic from solid, Ethanol, 20° C., read-out: Solubility); 432 µg/mL (≈ 1020 µM) in series [4] (organic solvent or mixture, thermodynamic from solid, Methanol, 20° C., read-out: Solubility); 1530 µg/mL (≈ 3600 µM) in series [4] (organic solvent or mixture, thermodynamic from solid, PEG400, 20° C., read-out: Solubility). In addition, the solubility in series [4] (organic solvent or mixture, thermodynamic from solid, Propanol, 20° C., read-out: Solubility) is 134 µg/mL (≈ 315 µM); in series [4] (organic solvent or mixture, thermodynamic from solid, Propylene glycol, 20° C., read-out: Solubility) it was 464 µg/mL (≈ 1090 µM); in series [4] (organic solvent or mixture, thermodynamic from solid, Tetrahydrofuran, 20° C., read-out: Solubility), 740 µg/mL (≈ 1740 µM); in series [4] (organic solvent or mixture, thermodynamic from solid, t-butyl methyl ether, 20° C., read-out: Solubility), below 2.39 µg/mL; in series [4] (pH 2, simulated gastric fluid, thermodynamic from solid, 0.01M HCl, 20° C., read-out: Solubility) it was 288 µg/mL (≈ 677 µM); in series [4] (pH adjusted with HCl/NaOH, aqueous buffer, thermodynamic from solid, Water pH 2, 20° C., read-out: Solubility), 291 µg/mL (≈ 684 µM). Also, the solubility in series [4] (pH adjusted with HCl/NaOH, aqueous buffer, thermodynamic from solid, Water pH 7, 20° C., read-out: Solubility) is 4.32 µg/mL (≈ 10.2 µM); in series [4] (pH adjusted with HCl/NaOH, aqueous buffer, thermodynamic from solid, Water pH 9, 20° C., read-out: Solubility), 4.29 µg/mL (≈ 10.1 µM); in series [4] (thermodynamic from solid, Water (purified), 20° C., read-out: Solubility), 3.84 µg/mL (≈ 9.02 µM). In series [5], the EC50 is 2.24 µM.

In the case of `Cl.O=C(Nc1nc2cccc(-c3ccc(CN4CCS(=O)(=O)CC4)cc3)n2n1)C1CC1` [Compound 1 HCl salt], the aqueous solubility in series [1] is 1900 µg/mL. In series [2], the “hygroscopicity of the salt” value is given as “non-hygroscopic” and the “stability of the salt” value is listed as “stable”.

Consider `O=C(O)/C=C\C(=O)O` [Compound 1 maleic acid salt], for which, in series [2], the “hygroscopicity of the salt” value is “non-hygroscopic”.

For `Cl.O.O.O.O=C(Nc1nc2cccc(-c3ccc(CN4CCS(=O)(=O)CC4)cc3)n2n1)C1CC1` [Compound 1.HCl.3H2O], in series [3] (setting [6]), the “in vivo exposure compared with Compound 1” value is “improved exposure” and the “rate of absorption compared with Compound 1” value was “more rapidly absorbed”. The solubility in series [4] (0.005M HCl, 20° C.) worked out at 3100 µg/mL.

The solubility is how much of the substance goes into solution per volume. The half-life is the time in which the quantity being followed falls by half. A lower half-life goes with fast loss. The term aqueous solubility denotes the dissolved amount per volume that the medium holds.
